From article PMC5218480 (PLoS ONE, 2017) come the findings set out here.

In the assay the test system is MV-4-11 cells. The experiment in a line: Gene expression microarray analysis (Affymetrix PrimeView) and GSEA. Further details: RFU PODN (11730768_x_at) / Fold change /veh PODN (11730768_x_at) / RFU LINC00158 (11744669_a_at) / Fold change /veh LINC00158 (11744669_a_at) / RFU DUSP10 (11751237_a_at) / Fold change /veh DUSP10 (11751237_a_at) / RFU ID3 (11757404_x_at) / Fold change /veh ID3 (11757404_x_at) / RFU PLEKHG5 (11737974_s_at) / Fold change /veh PLEKHG5 (11737974_s_at) / RFU LRRC4B (11730491_at) / Fold change /veh LRRC4B (11730491_at) / RFU GIMAP4 (11747438_a_at) / Fold change /veh GIMAP4 (11747438_a_at) / RFU KRT8 (11758183_x_at) / Fold change /veh KRT8 (11758183_x_at) / RFU CNN1 (11734310_a_at) / Fold change /veh CNN1 (11734310_a_at) / RFU VPS37D (11726825_at) / Fold change /veh VPS37D (11726825_at) / RFU C10orf10 (11716522_x_at) / Fold change /veh C10orf10 (11716522_x_at) / RFU KIR2DL2 /// KIR2DL4 /// KIR2DL5A /// KIR2DL5B /// KIR2DS1 /// KIR2DS2 /// KIR2DS3 /// KIR2DS4 /// KIR3DL3 /// KIR3DL3 /// KIR3DS1 (11738374_at) / Fold change /veh KIR2DL2 /// KIR2DL4 /// KIR2DL5A /// KIR2DL5B /// KIR2DS1 /// KIR2DS2 /// KIR2DS3 /// KIR2DS4 /// KIR3DL3 /// KIR3DL3 /// KIR3DS1 (11738374_at) / RFU C1QL1 (11718748_at) / Fold change /veh C1QL1 (11718748_at) / RFU TMPRSS4 (11747572_a_at) / Fold change /veh TMPRSS4 (11747572_a_at) / RFU HAMP (11756126_x_at) / Fold change /veh HAMP (11756126_x_at) / RFU RNFT2 (11725882_a_at) / Fold change /veh RNFT2 (11725882_a_at) / RFU NR4A2 (11747474_a_at) / Fold change /veh NR4A2 (11747474_a_at) / RFU ABCC12 (11746883_a_at) / Fold change /veh ABCC12 (11746883_a_at) / RFU TMEM136 (11760407_x_at) / Fold change /veh TMEM136 (11760407_x_at) / RFU CLDN22 /// WWC2 (11732394_at) / Fold change /veh CLDN22 /// WWC2 (11732394_at) / RFU HLA-DPB1 (11760878_x_at) / Fold change /veh HLA-DPB1 (11760878_x_at) / RFU SPINT1 (11716480_a_at) / Fold change /veh SPINT1 (11716480_a_at) / RFU GAP43 (11754022_s_at) / Fold change /veh GAP43 (11754022_s_at) / RFU A4GNT (11735810_at) / Fold change /veh A4GNT (11735810_at) / RFU PRB3 (11715151_x_at) / Fold change /veh PRB3 (11715151_x_at) / RFU TUBB4B (11761932_at) / Fold change /veh TUBB4B (11761932_at) / RFU CAPN14 (11732068_a_at) / Fold change /veh CAPN14 (11732068_a_at) / RFU TMCC2 (11721928_a_at) / Fold change /veh TMCC2 (11721928_a_at) / RFU IRGQ (11745062_a_at) / Fold change /veh IRGQ (11745062_a_at) / RFU FAM174B (11720279_a_at) / Fold change /veh FAM174B (11720279_a_at) / RFU TMPRSS4 (11748680_a_at) / Fold change /veh TMPRSS4 (11748680_a_at) / RFU FAM212B (11763350_a_at) / Fold change /veh FAM212B (11763350_a_at) / RFU PLEKHG5 (11743358_a_at) / Fold change /veh PLEKHG5 (11743358_a_at) / RFU ZSCAN30 (11745921_a_at) / Fold change /veh ZSCAN30 (11745921_a_at) / RFU CMKLR1 (11741424_a_at) / Fold change /veh CMKLR1 (11741424_a_at) / RFU LOC101060620 /// MAPK8IP1 (11723275_at) / Fold change /veh LOC101060620 /// MAPK8IP1 (11723275_at) / RFU SPTSSB (11747773_x_at) / Fold change /veh SPTSSB (11747773_x_at) / RFU PRSS12 (11739890_at) / Fold change /veh PRSS12 (11739890_at) / RFU BIN1 (11741810_x_at) / Fold change /veh BIN1 (11741810_x_at) / RFU WNT11 (11732464_a_at) / Fold change /veh WNT11 (11732464_a_at) / RFU C10orf10 (11716521_a_at) / Fold change /veh C10orf10 (11716521_a_at) / RFU C5orf56 (11738089_at) / Fold change /veh C5orf56 (11738089_at) / RFU CYB561 (11721691_x_at) / Fold change /veh CYB561 (11721691_x_at) / RFU ANKRD19P (11752326_a_at) / Fold change /veh ANKRD19P (11752326_a_at) / RFU OR2T12 /// OR2T33 /// OR2T8 (11738714_s_at) / Fold change /veh OR2T12 /// OR2T33 /// OR2T8 (11738714_s_at) / RFU VCAN (11748164_a_at) / Fold change /veh VCAN (11748164_a_at) / RFU JSRP1 (11732532_at) / Fold change /veh JSRP1 (11732532_at) / RFU KRTAP10-11 (11738290_x_at) / Fold change /veh KRTAP10-11 (11738290_x_at) / RFU MYO3A (11730013_a_at) / Fold change /veh MYO3A (11730013_a_at) / RFU EBF3 (11725865_a_at) / Fold change /veh EBF3 (11725865_a_at) / RFU CAMK2N1 (11719241_x_at) / Fold change /veh CAMK2N1 (11719241_x_at) / RFU C5orf56 (11738088_a_at) / Fold change /veh C5orf56 (11738088_a_at) / RFU OLFML3 (11715873_a_at) / Fold change /veh OLFML3 (11715873_a_at) / RFU LOC100653217 /// NTM (11731650_a_at) / Fold change /veh LOC100653217 /// NTM (11731650_a_at) / RFU MAPK11 (11762145_a_at) / Fold change /veh MAPK11 (11762145_a_at) / RFU FIZ1 (11724087_x_at) / Fold change /veh FIZ1 (11724087_x_at) / RFU OASL (11726364_x_at) / Fold change /veh OASL (11726364_x_at) / RFU SOX15 (11748057_x_at) / Fold change /veh SOX15 (11748057_x_at) / RFU CD79A (11719716_a_at) / Fold change /veh CD79A (11719716_a_at) / RFU HIST1H1D (11736915_at) / Fold change /veh HIST1H1D (11736915_at) / RFU CASKIN2 (11723855_a_at) / Fold change /veh CASKIN2 (11723855_a_at) / RFU LOC730098 (11760151_x_at) / Fold change /veh LOC730098 (11760151_x_at) / RFU OR4N2 (11742367_at) / Fold change /veh OR4N2 (11742367_at) / RFU PRRT2 (11749266_a_at) / Fold change /veh PRRT2 (11749266_a_at) / RFU SNX32 (11753110_a_at) / Fold change /veh SNX32 (11753110_a_at) / RFU CDHR5 (11726645_a_at) / Fold change /veh CDHR5 (11726645_a_at) / RFU RCAN1 (11760418_a_at) / Fold change /veh RCAN1 (11760418_a_at) / RFU FAM167A (11723789_a_at) / Fold change /veh FAM167A (11723789_a_at) / RFU FAM26E (11764081_at) / Fold change /veh FAM26E (11764081_at) / RFU ISYNA1 (11749810_s_at) / Fold change /veh ISYNA1 (11749810_s_at) / RFU ACY1 (11761880_at) / Fold change /veh ACY1 (11761880_at) / RFU 11764098_at / Fold change /veh 11764098_at / RFU SAMD14 (11745864_x_at) / Fold change /veh SAMD14 (11745864_x_at) / RFU NPB (11741838_a_at) / Fold change /veh NPB (11741838_a_at) / RFU TMPRSS6 (11731388_a_at) / Fold change /veh TMPRSS6 (11731388_a_at) / RFU KRTAP10-2 (11738614_at) / Fold change /veh KRTAP10-2 (11738614_at) / RFU ARHGAP8 /// PRR5-ARHGAP8 (11727945_x_at) / Fold change /veh ARHGAP8 /// PRR5-ARHGAP8 (11727945_x_at) / RFU KRTAP5-7 /// NADSYN1 (11734609_at) / Fold change /veh KRTAP5-7 /// NADSYN1 (11734609_at) / RFU RASL12 (11751679_a_at) / Fold change /veh RASL12 (11751679_a_at) / RFU CDKN2B (11736163_a_at) / Fold change /veh CDKN2B (11736163_a_at) / RFU PRF1 (11729649_at) / Fold change /veh PRF1 (11729649_at) / RFU, ZNF638 /// ZNF638-IT1 / Fold change vs veh, ZNF638 /// ZNF638-IT1 / RFU, PANK3 / Fold change vs veh, PANK3 / RFU, SH3YL1 / Fold change vs veh, SH3YL1 / RFU, ZEB2 / Fold change vs veh, ZEB2 / RFU, NRIP1 / Fold change vs veh, NRIP1 / RFU, PTTG1IP / Fold change vs veh, PTTG1IP / RFU, CAPN2 / Fold change vs veh, CAPN2 / RFU, MED14 / Fold change vs veh, MED14 / RFU, SNORA58 / Fold change vs veh, SNORA58 / RFU, C1orf63 / Fold change vs veh, C1orf63 / RFU, LRRFIP1 / Fold change vs veh, LRRFIP1 / RFU, NDUFAF7 / Fold change vs veh, NDUFAF7 / RFU, SLC12A2 / Fold change vs veh, SLC12A2 / RFU, IBTK / Fold change vs veh, IBTK / RFU, ESF1 / Fold change vs veh, ESF1 / Fold change vs veh, TMEM50B / RFU, TAOK1 / Fold change vs veh, TAOK1 / RFU, ACBD3 / Fold change vs veh, ACBD3 / RFU, TMA16 / Fold change vs veh, TMA16 / RFU, RWDD3 / Fold change vs veh, RWDD3 / RFU, BCAT1 / Fold change vs veh, BCAT1 / RFU, EDEM3 / Fold change vs veh, EDEM3 / RFU, TMEM33 / Fold change vs veh, TMEM33 / RFU, WDR75 / Fold change vs veh, WDR75 / RFU, AHCTF1 / Fold change vs veh, AHCTF1 / RFU, TFRC / Fold change vs veh, TFRC / RFU, ZDHHC17 / Fold change vs veh, ZDHHC17 / RFU, NOM1 / Fold change vs veh, NOM1 / RFU, ARL8B / Fold change vs veh, ARL8B / RFU, ZBTB11 / Fold change vs veh, ZBTB11 / RFU, TAMM41 / Fold change vs veh, TAMM41 / RFU, KIAA1704 /// LOC100996395 / Fold change vs veh, KIAA1704 /// LOC100996395 / RFU, ING1 / Fold change vs veh, ING1 / RFU, TRMT61B / Fold change vs veh, TRMT61B / RFU, FUBP3 / Fold change vs veh, FUBP3 / RFU, TP53 / Fold change vs veh, TP53 / RFU, TNKS2 / Fold change vs veh, TNKS2 / RFU, ZFP14 / Fold change vs veh, ZFP14 / RFU, ACTR2 / Fold change vs veh, ACTR2 / RFU, PPP3R1 / Fold change vs veh, PPP3R1 / RFU, PIK3R1 / Fold change vs veh, PIK3R1 / RFU, HNRNPA1 / Fold change vs veh, HNRNPA1 / RFU, RNF170 / Fold change vs veh, RNF170 / RFU, ZNF28 / Fold change vs veh, ZNF28 / RFU, RNGTT / Fold change vs veh, RNGTT / RFU, OGT / Fold change vs veh, OGT / RFU, BRD1 / Fold change vs veh, BRD1 / RFU, MARS / Fold change vs veh, MARS / RFU, ZNF655 / Fold change vs veh, ZNF655 / RFU, FAHD1 / Fold change vs veh, FAHD1 / RFU, BDP1 / Fold change vs veh, BDP1 / RFU, LRRCC1 / Fold change vs veh, LRRCC1 / RFU, ARID1A / Fold change vs veh, ARID1A / RFU, ZNF146 / Fold change vs veh, ZNF146 / RFU, ZNF330 / Fold change vs veh, ZNF330 / RFU, GPN3 / Fold change vs veh, GPN3 / RFU, C9orf123 / Fold change vs veh, C9orf123 / RFU, N4BP2L2 / Fold change vs veh, N4BP2L2 / RFU, ARFIP1 / Fold change vs veh, ARFIP1 / RFU, FAM179B / Fold change vs veh, FAM179B / RFU, BCL10 / Fold change vs veh, BCL10 / RFU, UHRF1BP1L / Fold change vs veh, UHRF1BP1L / RFU, BET1 / Fold change vs veh, BET1 / RFU, CNOT2 / Fold change vs veh, CNOT2 / RFU, ZNF268 / Fold change vs veh, ZNF268 / Fold change vs veh, ZNF507 / RFU, DGCR2 / Fold change vs veh, DGCR2 / RFU, WDSUB1 / Fold change vs veh, WDSUB1 / Fold change vs veh, HSP90B1 /// MIR3652 / RFU, ADSS / Fold change vs veh, ADSS / RFU, GK / Fold change vs veh, GK / RFU, ZNF148 / Fold change vs veh, ZNF148 / RFU, TAF9 / Fold change vs veh, TAF9 / RFU, SLC1A5 / Fold change vs veh, SLC1A5 / RFU, SLMO2 / Fold change vs veh, SLMO2 / RFU, ABCC4 / Fold change vs veh, ABCC4 / RFU, LOC101060439 /// RAP1B / Fold change vs veh, LOC101060439 /// RAP1B / RFU, RFX7 / Fold change vs veh, RFX7 / RFU, GTPBP10 / Fold change vs veh, GTPBP10 / RFU, CNEP1R1 / Fold change vs veh, CNEP1R1 / RFU, BIVM-ERCC5 /// ERCC5 / Fold change vs veh, BIVM-ERCC5 /// ERCC5 / RFU, ILF3 / Fold change vs veh, ILF3 / RFU 11762660_at / Fold change /veh 11762660_at / RFU VCAN (11757783_s_at) / Fold change /veh VCAN (11757783_s_at) / RFU DDX43 (11728927_at) / Fold change /veh DDX43 (11728927_at) / RFU KRT8 (11758188_x_at) / Fold change /veh KRT8 (11758188_x_at) / RFU NKD1 (11759106_at) / Fold change /veh NKD1 (11759106_at) / RFU SRD5A1 (11742802_a_at) / Fold change /veh SRD5A1 (11742802_a_at) / RFU TPSAB1 /// TPSB2 (11721975_s_at) / Fold change /veh TPSAB1 /// TPSB2 (11721975_s_at) / RFU GSTM3 (11746129_a_at) / Fold change /veh GSTM3 (11746129_a_at) / RFU IL23R (11737362_x_at) / Fold change /veh IL23R (11737362_x_at) / RFU TMEM51 (11727254_a_at) / Fold change /veh TMEM51 (11727254_a_at) / RFU PIWIL2 (11732686_x_at) / Fold change /veh PIWIL2 (11732686_x_at) / RFU ORM1 (11744905_x_at) / Fold change /veh ORM1 (11744905_x_at) / RFU CCDC152 (11743942_at) / Fold change /veh CCDC152 (11743942_at) / RFU ECM1 (11717891_a_at) / Fold change /veh ECM1 (11717891_a_at) / RFU IL23R (11748794_a_at) / Fold change /veh IL23R (11748794_a_at) / RFU TNFAIP8L3 (11732012_x_at) / Fold change /veh TNFAIP8L3 (11732012_x_at) / RFU MBOAT4 (11741988_at) / Fold change /veh MBOAT4 (11741988_at) / RFU 11764193_at / Fold change /veh 11764193_at / RFU TMEM53 (11763286_at) / Fold change /veh TMEM53 (11763286_at) / RFU MAGEB2 (11727129_at) / Fold change /veh MAGEB2 (11727129_at) / RFU TMEM200A (11744735_a_at) / Fold change /veh TMEM200A (11744735_a_at) / RFU CCDC152 (11751479_a_at) / Fold change /veh CCDC152 (11751479_a_at) / RFU FAM211A (11726209_a_at) / Fold change /veh FAM211A (11726209_a_at) / RFU RGS16 (11746705_a_at) / Fold change /veh RGS16 (11746705_a_at) / RFU VCAN (11755009_s_at) / Fold change /veh VCAN (11755009_s_at) / RFU RHOB (11743442_s_at) / Fold change /veh RHOB (11743442_s_at) / RFU RGS16 (11720943_a_at) / Fold change /veh RGS16 (11720943_a_at) / RFU RGS16 (11720944_at) / Fold change /veh RGS16 (11720944_at) / RFU, VPS4B / Fold change vs veh, VPS4B / RFU, CREB1 / Fold change vs veh, CREB1 / RFU, DNAJC13 / Fold change vs veh, DNAJC13 / RFU, GNAQ / Fold change vs veh, GNAQ / RFU, CDK5R1 / Fold change vs veh, CDK5R1 / RFU, ZRANB3 / Fold change vs veh, ZRANB3 / RFU, CUL4A / Fold change vs veh, CUL4A / RFU, CCNY / Fold change vs veh, CCNY / RFU, UFL1 / Fold change vs veh, UFL1 / RFU, COG3 / Fold change vs veh, COG3 / RFU, DIAPH2 / Fold change vs veh, DIAPH2 / RFU, SKA2 / Fold change vs veh, SKA2 / RFU, AFF3 / Fold change vs veh, AFF3 / RFU, LMF1 / Fold change vs veh, LMF1 / RFU, IPO11 / Fold change vs veh, IPO11 / RFU, DFFB / Fold change vs veh, DFFB / RFU, FOXP1 / Fold change vs veh, FOXP1 / RFU, CARD8 / Fold change vs veh, CARD8 / RFU, STRN3 / Fold change vs veh, STRN3 / RFU, ADK / Fold change vs veh, ADK / RFU, RASSF2 / Fold change vs veh, RASSF2 / RFU, WIPF1 / Fold change vs veh, WIPF1 / RFU, LARP1B / Fold change vs veh, LARP1B / RFU, RASA1 / Fold change vs veh, RASA1 / RFU, RB1 / Fold change vs veh, RB1 / RFU, PPFIA1 / Fold change vs veh, PPFIA1 / RFU, MAT2A / Fold change vs veh, MAT2A / RFU, CCT5 / Fold change vs veh, CCT5 / RFU, WDR92 / Fold change vs veh, WDR92 / RFU, CUX1 / Fold change vs veh, CUX1 / RFU, TTC7A / Fold change vs veh, TTC7A / RFU, TMEM135 / Fold change vs veh, TMEM135 / RFU, DEPTOR / Fold change vs veh, DEPTOR / RFU, CPM / Fold change vs veh, CPM / RFU, DNAJB6 / Fold change vs veh, DNAJB6 / RFU, CACNA2D3 / Fold change vs veh, CACNA2D3 / RFU, DTX4 / Fold change vs veh, DTX4 / RFU, TFCP2 / Fold change vs veh, TFCP2 / RFU, GMCL1 /// GMCL1P1 / Fold change vs veh, GMCL1 /// GMCL1P1 / RFU, AEBP2 / Fold change vs veh, AEBP2 / RFU, SNHG1 /// SNORD22 /// SNORD25 /// SNORD26 /// SNORD27 /// SNORD28 /// SNORD29 /// SNORD31 / Fold change vs veh, SNHG1 /// SNORD22 /// SNORD25 /// SNORD26 /// SNORD27 /// SNORD28 /// SNORD29 /// SNORD31 / Fold change (Aza/veh), C12orf56 (ProbeSet 11735607_a_at) / Fold change (ACY-1035/veh), C12orf56 (ProbeSet 11735607_a_at) / Fold change (Aza/veh), FGFR1OP (ProbeSet 11751329_s_at) / Fold change (ACY-1035/veh), FGFR1OP (ProbeSet 11751329_s_at) / Fold change (Aza/veh), VPS36 (ProbeSet 11739960_a_at) / Fold change (ACY-1035/veh), VPS36 (ProbeSet 11739960_a_at) / RFU SYPL1 (11715823_x_at) / Fold change /veh SYPL1 (11715823_x_at) / RFU IGFBP7 (11715501_s_at) / Fold change /veh IGFBP7 (11715501_s_at) / RFU REEP3 (11722064_at) / Fold change /veh REEP3 (11722064_at) / RFU IGLL1 (11728026_x_at) / Fold change /veh IGLL1 (11728026_x_at): dose or concentration left out as unconfirmed. The class given is cell-based, human. The settings on record: MV-4-11 cells, 48 hours.

With `Nc1ncn([C@@H]2O[C@H](CO)[C@@H](O)[C@H]2O)c(=O)n1` [azacitidine], the “RFU IGLL1 (11728026_x_at)” value came out at 12.85 RFU.
